From patent publication US9546164B2 (GENENTECH, INC., priority 2013, dated 2017) come the findings set out here.

Counter-ions that a name gives are not always drawn.

In the first experiment the target is hNav1.7 (Homo sapiens (Human), UniProt Q15858). Description: Tritiated sulfonamide competitive binding to membranes from cells expressing hNav1.7 and the β1 subunit.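 Further: Filter-bound radioactivity counted by liquid scintillation, nonspecific binding defined with excess unlabelled ligand, IC50 fitted to percent inhibition of specific binding.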
Chain of hNav1.7 (Q15858 other isoform, or with tags, fused parts or gaps): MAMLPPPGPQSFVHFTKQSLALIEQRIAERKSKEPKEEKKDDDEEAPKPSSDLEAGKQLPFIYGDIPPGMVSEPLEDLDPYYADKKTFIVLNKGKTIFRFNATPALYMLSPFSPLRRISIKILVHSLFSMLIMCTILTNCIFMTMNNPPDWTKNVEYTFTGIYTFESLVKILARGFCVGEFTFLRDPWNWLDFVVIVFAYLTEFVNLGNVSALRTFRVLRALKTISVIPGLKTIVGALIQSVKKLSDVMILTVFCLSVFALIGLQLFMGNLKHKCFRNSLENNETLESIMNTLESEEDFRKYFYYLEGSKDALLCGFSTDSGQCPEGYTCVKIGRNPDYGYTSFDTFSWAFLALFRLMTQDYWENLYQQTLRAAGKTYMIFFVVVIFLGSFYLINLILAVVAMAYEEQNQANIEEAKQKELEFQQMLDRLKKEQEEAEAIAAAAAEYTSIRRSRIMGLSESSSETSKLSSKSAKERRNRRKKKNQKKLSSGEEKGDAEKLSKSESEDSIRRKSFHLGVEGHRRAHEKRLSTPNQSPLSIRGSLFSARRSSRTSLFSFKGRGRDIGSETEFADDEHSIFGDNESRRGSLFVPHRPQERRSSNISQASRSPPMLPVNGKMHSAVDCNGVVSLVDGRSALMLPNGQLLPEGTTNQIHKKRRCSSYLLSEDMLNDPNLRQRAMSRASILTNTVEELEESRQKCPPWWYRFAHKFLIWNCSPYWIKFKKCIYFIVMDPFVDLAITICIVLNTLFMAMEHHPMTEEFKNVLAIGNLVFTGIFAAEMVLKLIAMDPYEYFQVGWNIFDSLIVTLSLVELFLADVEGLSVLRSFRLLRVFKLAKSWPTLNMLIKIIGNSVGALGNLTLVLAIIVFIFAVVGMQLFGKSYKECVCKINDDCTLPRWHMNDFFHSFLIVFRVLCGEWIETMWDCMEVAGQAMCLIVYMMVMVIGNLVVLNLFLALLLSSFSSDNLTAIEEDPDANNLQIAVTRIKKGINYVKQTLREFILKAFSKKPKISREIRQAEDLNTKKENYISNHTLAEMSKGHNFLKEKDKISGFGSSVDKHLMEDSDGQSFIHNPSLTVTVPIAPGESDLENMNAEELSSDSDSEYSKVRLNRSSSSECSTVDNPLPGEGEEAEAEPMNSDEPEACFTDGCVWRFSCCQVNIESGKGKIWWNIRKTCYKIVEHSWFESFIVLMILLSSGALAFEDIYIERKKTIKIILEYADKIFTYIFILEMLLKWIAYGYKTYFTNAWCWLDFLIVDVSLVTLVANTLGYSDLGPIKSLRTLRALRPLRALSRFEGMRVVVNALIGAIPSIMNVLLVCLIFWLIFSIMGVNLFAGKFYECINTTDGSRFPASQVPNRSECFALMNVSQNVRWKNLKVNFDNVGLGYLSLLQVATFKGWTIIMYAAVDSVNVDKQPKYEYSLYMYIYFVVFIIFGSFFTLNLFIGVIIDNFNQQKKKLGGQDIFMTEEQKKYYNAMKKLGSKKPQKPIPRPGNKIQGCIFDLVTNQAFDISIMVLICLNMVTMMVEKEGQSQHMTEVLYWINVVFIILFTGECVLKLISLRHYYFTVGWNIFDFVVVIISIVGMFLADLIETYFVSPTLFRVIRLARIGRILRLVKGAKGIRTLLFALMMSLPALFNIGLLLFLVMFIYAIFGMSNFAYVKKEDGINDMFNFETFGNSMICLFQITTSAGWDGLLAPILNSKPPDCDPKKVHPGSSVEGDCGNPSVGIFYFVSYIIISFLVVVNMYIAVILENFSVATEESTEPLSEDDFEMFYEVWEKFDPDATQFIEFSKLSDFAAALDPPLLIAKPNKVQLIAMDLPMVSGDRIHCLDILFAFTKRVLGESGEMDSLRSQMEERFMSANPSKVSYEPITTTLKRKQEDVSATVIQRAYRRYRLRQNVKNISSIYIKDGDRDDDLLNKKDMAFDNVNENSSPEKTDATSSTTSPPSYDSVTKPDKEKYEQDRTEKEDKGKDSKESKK
Chain of hNav1.7 (Q07699 19-218 partner): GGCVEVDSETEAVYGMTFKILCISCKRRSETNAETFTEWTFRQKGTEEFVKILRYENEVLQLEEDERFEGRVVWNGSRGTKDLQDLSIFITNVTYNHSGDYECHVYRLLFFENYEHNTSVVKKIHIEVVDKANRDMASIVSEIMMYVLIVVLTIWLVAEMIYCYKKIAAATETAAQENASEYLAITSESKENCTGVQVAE
Settings: not given
For `O=C(NS(=O)(=O)C1CC1)c1cc(C2CC2)c(O[C@@H]2CCCN(Cc3ccc(F)cc3Cl)C2)cc1F` [Example 7, (R)-4-((1-(2-chloro-4-fluorobenzyl)piperidin-3-yl)oxy)-5-cyclopropyl-N-(cyclopropylsulfonyl)-2-fluorobenzamide], the IC50 worked out at 3.5 nM.
Same read-out and setting: the value for `O=C(NS(=O)(=O)N1CCC1)c1cc(C2CC2)c(O[C@@H]2CCCN(c3cc(Cl)cc(Cl)c3)C2)cc1F` [Example 43, (R)—N-(azetidin-1-ylsulfonyl)-5-cyclopropyl-4-((1-(3,5-dichlorophenyl)piperidin-3-yl)oxy)-2-fluorobenzamide] was 4.9 nM.
`CS(=O)(=O)NC(=O)c1cc(C2CC2)c(O[C@@H]2CCCN(Cc3ccccc3Cl)C2)cc1F` [Example 24, (R)-4-((1-(2-chlorobenzyl)piperidin-3-yl)oxy)-5-cyclopropyl-2-fluoro-N-(methylsulfonyl)benzamide] returned an IC50 of 6 nM.

The same experiment, now with this note: read-out: Ligand Binding Assay; 100 pM [3H]compound, membranes with hNav1.7 and β1 subunit, 18 h, room temperature.
Regarding `O=C(NS(=O)(=O)C1CC1)c1cc(C2CC2)c(OCC2CCN(C(=O)c3ccccc3)CC2)cc1F` [Example 198, 4-((1-Benzoylpiperidin-4-yl)methoxy)-5-cyclopropyl-N-(cyclopropylsulfonyl)-2-fluorobenzamide], the IC50 was 550 nM.
Same read-out and setting: the result for `C[C@@H](c1ccc(F)cc1Cl)N1C[C@H]2C[C@@H]1[C@H](Oc1cc(F)c(C(=O)NS(C)(=O)=O)cc1C1CC1)C2` [Example 450, 4-(((1R,4S,6R)-2-((S)-1-(2-chloro-4-fluorophenyl)ethyl)-2-azabicyclo[2.2.1]heptan-6-yl)oxy)-5-cyclopropyl-2-fluoro-N-(methylsulfonyl)benzamide, trifluoroacetic acid salt] reads 9.9 nM; that for `C[C@@H](c1cc(Cl)cc(Cl)c1)N1CC(COc2cc(F)c(C(=O)NS(C)(=O)=O)cc2C2CC2)C1` [Example 120, (S)-5-Cyclopropyl-4-((1-(1-(3,5-dichlorophenyl)ethyl)azetidin-3-yl)methoxy)-2-fluoro-N-(methylsulfonyl)benzamide], 20.6 nM; that for `CS(=O)(=O)NC(=O)c1cc(C2CC2)c(OCC2CN([C@H](c3ccccc3)c3ccccc3F)C2)cc1F` [Example 125, (R)-5-Cyclopropyl-2-fluoro-4-((1-((2-fluorophenyl)(phenyl)methyl)azetidin-3-yl)methoxy)-N-(methylsulfonyl)benzamide], 25 nM.
For `CC1(COc2cc(F)c(C(=O)NS(C)(=O)=O)cc2C2CC2)CN(C(c2ccccc2)c2ccccc2)C1` [Example 68, 4-((1-benzhydryl-3-methylazetidin-3-yl)methoxy)-5-cyclopropyl-2-fluoro-N-(methylsulfonyl)benzamide], the IC50 is 6.4 nM.
As to `CCS(=O)(=O)NC(=O)c1cc(C2CC2)c(OCC2CCN([C@@](C)(COC)c3cc(Cl)cc(Cl)c3)CC2)cc1F` (single isomer, unassigned) [Example 204], the IC50 was 2.7 nM.
On the same count and under the same terms, the value for `O=C(NS(=O)(=O)C1CC1)c1cc(C2CC2)c(OC[C@H]2CCCN(Cc3ccc(F)cc3Cl)C2)cc1F` [Example 340, (S)-4-((1-(2-chloro-4-fluorobenzyl)piperidin-3-yl)methoxy)-5-cyclopropyl-N-(cyclopropylsulfonyl)-2-fluorobenzamide, trifluoroacetic acid salt] was 4.7 nM; that for `CC(C)Oc1ncc(CN2CCC(COc3cc(F)c(C(=O)NS(C)(=O)=O)cc3C3CC3)CC2)cc1Cl` [Example 128, 4-((1-((5-Chloro-6-isopropoxypyridin-3-yl)methyl)piperidin-4-yl)methoxy)-5-cyclopropyl-2-fluoro-N-(methylsulfonyl)benzamide] was 5.6 nM.
`COC(C)(C)[C@@H](c1cc(Cl)cc(Cl)c1)N1CCC(COc2cc(F)c(C(=O)NS(C)(=O)=O)cc2C2CC2)CC1` (single isomer, unassigned) [Example 205]: the IC50 worked out at 2.5 nM.
`C[C@H](c1cc(Cl)cc(Cl)c1)N1CC(C)(COc2cc(F)c(C(=O)NS(C)(=O)=O)cc2C2CC2)C1` (single isomer, unassigned) [Example 185]: the IC50 stood at 7 nM.
On the same count and under the same terms, the result for `CS(=O)(=O)NC(=O)c1cc(C2CC2)c(OCC2CN([C@@H](c3ccccc3)c3ccc(F)cc3)C2)cc1F` [Example 144, (S)-5-Cyclopropyl-2-fluoro-4-((1-((4-fluorophenyl)(phenyl)methyl)azetidin-3-yl)methoxy)-N-(methylsulfonyl)benzamide] reads 9.15 nM.
Still for that read-out and setting: the result for `CS(=O)(=O)NC(=O)c1cc(C2CC2)c(OCC2CCN(Cc3ccc(Cl)cc3)CC2)cc1F` [Example 104, 4-((1-(4-Chlorobenzyl)piperidin-4-yl)methoxy)-5-cyclopropyl-2-fluoro-N-(methylsulfonyl)benzamide] reads 45.1 nM; that for `O=C(NS(=O)(=O)N1CCC1)c1cc(C2CC2)c(OC[C@@H]2CCCN(Cc3ccc(F)cc3Cl)C2)cc1F` [Example 333], 20.7 nM.
On the same count and under the same terms, the value for `CC1(COc2cc(F)c(C(=O)NS(=O)(=O)C3CC3)cc2C2CC2)CN(C(c2ccccc2)c2ccccc2)C1` [Example 70, 4-((1-benzhydryl-3-methylazetidin-3-yl)methoxy)-5-cyclopropyl-N-(cyclopropylsulfonyl)-2-fluorobenzamide] was 6 nM; that for `O=C(NS(=O)(=O)C1CC1)c1cc(C2CC2)c(CN2CCO[C@H](Cc3ccc(Cl)c(Cl)c3)C2)cc1F` [Example 460, (R)-5-cyclopropyl-N-(cyclopropylsulfonyl)-4-((2-(3,4-dichlorobenzyl)morpholino)methyl)-2-fluorobenzamide] was 5 nM.
Take `O=C(NS(=O)(=O)C1CC1)c1cc(C2CC2)c(OCC2CCN(C(=O)c3ccc(Cl)cc3Cl)CC2)cc1F` [Example 258, 5-Cyclopropyl-N-(cyclopropylsulfonyl)-4-((1-(2,4-dichlorobenzoyl)piperidin-4-yl)methoxy)-2-fluorobenzamide]: the IC50 was determined as 65 nM.
Same read-out and setting: the value for `C[C@H](c1cc(F)cc(C(F)(F)F)c1)N1CCC(C)(COc2cc(F)c(C(=O)NS(C)(=O)=O)cc2C2CC2)CC1` [Example 170, (R)-5-cyclopropyl-2-fluoro-4-((1-(1-(3-fluoro-5-(trifluoromethyl)phenyl)ethyl)-4-methylpiperidin-4-yl)methoxy)-N-(methylsulfonyl)benzamide] was 5 nM; that for `CS(=O)(=O)NC(=O)c1cc(C2CC2)c(OCC2CN(C(c3ccccc3)c3cccc(F)c3)C2)cc1F` (stereo not drawn) [Example 154, 5-Cyclopropyl-2-fluoro-4-((1-((3-fluorophenyl)(phenyl)methyl)azetidin-3-yl)methoxy)-N-(methylsulfonyl)benzamide] was 9.12 nM; that for `O=C(NS(=O)(=O)C1CC1)c1cc(C2CC2)c(OCC2CCN(S(=O)(=O)c3ccc(C(F)(F)F)cc3Cl)CC2)cc1F` [Example 385, 4-((1-((2-chloro-4-(trifluoromethyl)phenyl)sulfonyl)piperidin-4-yl)methoxy)-5-cyclopropyl-N-(cyclopropylsulfonyl)-2-fluorobenzamide] was 10 nM.
Turning to `CC(c1cc(Cl)cc(Cl)c1)N1CCN(Cc2cc(F)c(C(=O)NS(C)(=O)=O)cc2C2CC2)CC1` (stereo not drawn) [Example 540], the IC50 amounted to 7.8 nM.
Regarding `CS(=O)(=O)NC(=O)c1cc(C2CC2)c(O[C@@H]2CCCN(Cc3cccc(-c4ccccc4)c3)C2)cc1F` [Example 443, (R)-4-((1-([1,1′-biphenyl]-3-ylmethyl)piperidin-3-yl)oxy)-5-cyclopropyl-2-fluoro-N-(methylsulfonyl)benzamide, trifluoroacetic acid salt], the IC50 amounted to 3.4 nM.
